The source made the active and inactive calls. The calls are words filed in the database; no cut-off is given here.
Legend:
Mu-type opioid receptor [1] = target: T1, Mu-type opioid receptor (Homo sapiens, UniProt P35372); test: Displacement of [3H]diprenorphine from human mu opioid receptor in CHO cells at 10 uM; type: cell-based
[2] = target: T2, Kappa-type opioid receptor (Homo sapiens, UniProt P41145); test: Displacement of [3H]diprenorphine from human kappa opioid receptor in CHO cells at 10 uM; type: cell-based
[3] = target: Voltage-gated inwardly rectifying potassium channel KCNH2 (Homo sapiens, UniProt Q12809)
Description: Inhibition of human ERG channel in HEK293 cells by voltage-clamp method

[4] = target: T3, Delta-type opioid receptor (Homo sapiens, UniProt P41143); test: biochemical
Description: Displacement of [3H]diprenorphine from human delta opioid receptor in CHO cells

[5] = target: T2, Kappa-type opioid receptor; test: Displacement of [3H]diprenorphine from human kappa opioid receptor in CHO cells; type: cell-based
[6] = target: T3, Delta-type opioid receptor
Description: Agonist activity at human delta opioid receptor in CHO cells assessed as stimulation of [35S]GTPgammaS binding

Rattus norvegicus [7] = species: Rattus norvegicus; test: Antihyperalgesic effect in rat assessed as reversal of Freund's complete adjuvant-induced paw pressure after 60 mins; type: functional, organism-based
Rattus norvegicus [8] = test: Antihyperalgesic effect in rat assessed as reversal of Freund's complete adjuvant-induced paw pressure at 3 mg/kg, po; type: functional
Rattus norvegicus [9] = species: Rattus norvegicus; test: Antihyperalgesic effect in rat assessed as reversal of Freund's complete adjuvant-induced paw pressure; type: functional
Rattus norvegicus [10] = test: Antidepressant activity in Sprague-Dawley rat assessed as decrease in immobility time at 3 mg/kg, po by forced swim test; type: functional, organism-based; parameters: dose 3 mg/kg
Rattus norvegicus [11] = test: Antidepressant activity in Sprague-Dawley rat assessed as increase in time spent swimming at 3 mg/kg, po by forced swim test; type: functional, organism-based; parameters: dose 3 mg/kg
[12] = Clearance in rat at 0.25 mg/kg, iv and 3.0 mg/kg, po; type: ADME, organism-based; details: in vivo
[13] = Volume of distribution at steady state in rat at 0.25 mg/kg, iv and 3.0 mg/kg, po; type: ADME, organism-based; details: in vivo, read-out: Vdss
[14] = Half life in rat at 3.0 mg/kg, po; type: ADME, organism-based; parameters: dose 3 mg/kg, route oral; details: in vivo
[15] = Cmax in rat at 0.25 mg/kg, iv and 3.0 mg/kg, po; type: ADME, organism-based; details: in vivo
[16] = Oral bioavailability in rat at 3 mg/kg; type: ADME, organism-based; details: in vivo
[17] = Clearance in dog at 1 mg/kg, iv and 3.0 mg/kg, po; type: ADME, organism-based, Canis lupus familiaris; details: in vivo
[18] = Volume of distribution at steady state in dog at 1 mg/kg, iv and 3.0 mg/kg, po; type: ADME, organism-based, Canis lupus familiaris; details: in vivo, read-out: Vdss
[19] = Half life in dog at 3.0 mg/kg, po; type: ADME, organism-based, Canis lupus familiaris; parameters: dose 3 mg/kg, route oral; details: in vivo
[20] = Cmax in dog at 1 mg/kg, iv and 3.0 mg/kg, po; type: ADME, organism-based, Canis lupus familiaris; details: in vivo
[21] = Oral bioavailability in dog at 3 mg/kg; type: ADME, organism-based, Canis lupus familiaris; details: in vivo
[22] = Fraction unbound in rat plasma protein at 2 uM; type: ADME, cell-free; details: read-out: PPB
[23] = Fraction unbound in dog plasma at 2 uM; type: ADME, cell-free, Canis lupus familiaris; details: read-out: PPB
Liver microsomes [24] = test: Metabolic stability in human liver microsomes; type: ADME, Microsome
[25] = Fraction unbound in human plasma at 2 uM; type: ADME, cell-free; details: read-out: PPB
Liver microsomes [26] = test: Metabolic stability in rat liver microsomes; type: ADME, Microsome
[27] = Metabolic stability in dog liver microsomes after 30 mins; type: ADME, Canis lupus familiaris, Microsome; details: read-out: Stability
Rattus norvegicus [28] = test: Toxicity in rat assessed as EEG disturbances at 10 mg/kg and 30 mg/kg, po; type: organism-based; details: in vivo
Rattus norvegicus [29] = test: Increase in locomotory activity in rat upto 1000 mg/kg, po; type: functional, organism-based; parameters: dose 1000 mg/kg
Rattus norvegicus [30] = test: Increase in stereotypic behavior in rat upto 1000 mg/kg, po; type: functional, organism-based; parameters: dose 1000 mg/kg
Rattus norvegicus [31] = test: Convulsion activity in rat upto 1000 mg/kg, po; type: functional, organism-based; parameters: dose 1000 mg/kg
Mus musculus [32] = test: Increase in locomotory activity in mouse upto 1000 mg/kg, po; type: functional, organism-based; parameters: dose 1000 mg/kg
Mus musculus [33] = test: Increase in stereotypic behavior in mouse upto 1000 mg/kg, po; type: functional, organism-based; parameters: dose 1000 mg/kg
Mus musculus [34] = test: Convulsion activity in mouse upto 1000 mg/kg, po; type: functional, organism-based; parameters: dose 1000 mg/kg
Rattus norvegicus [35] = test: Antihyperalgesic effect in rat assessed as reversal of Freund's complete adjuvant-induced paw pressure at 3 mg/kg, po in presence of naltrindole; type: functional, organism-based; parameters: dose 3 mg/kg
Rattus norvegicus [36] = test: Antidepressant activity in Sprague-Dawley rat assessed as increase in time spent swimming at 3 mg/kg, po in presence of naltrindole by forced swim test; type: functional, organism-based; parameters: dose 3 mg/kg
Rattus norvegicus [37] = species: Rattus norvegicus; test: Antihyperalgesic effect in rat assessed as reversal of Freund's complete adjuvant-induced paw pressure after 30 mins; type: functional, organism-based
Mu-type opioid receptor [38] = target: T1, Mu-type opioid receptor; test: Displacement of [3H]diprenorphine from human mu opioid receptor in CHO cells; type: cell-based

T3 sequence (P41143 whole entry): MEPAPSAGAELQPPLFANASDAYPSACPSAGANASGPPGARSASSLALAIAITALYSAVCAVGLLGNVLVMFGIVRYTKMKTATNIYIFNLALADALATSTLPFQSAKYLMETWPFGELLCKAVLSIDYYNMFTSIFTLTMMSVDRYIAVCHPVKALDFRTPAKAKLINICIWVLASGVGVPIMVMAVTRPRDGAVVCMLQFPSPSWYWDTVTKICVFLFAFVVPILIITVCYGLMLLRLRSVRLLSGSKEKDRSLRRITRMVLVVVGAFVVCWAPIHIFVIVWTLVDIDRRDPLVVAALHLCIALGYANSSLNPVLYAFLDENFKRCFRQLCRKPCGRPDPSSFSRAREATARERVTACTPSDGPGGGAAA
Chain of Voltage-gated inwardly rectifying potassium channel KCNH2 (Q12809 whole entry): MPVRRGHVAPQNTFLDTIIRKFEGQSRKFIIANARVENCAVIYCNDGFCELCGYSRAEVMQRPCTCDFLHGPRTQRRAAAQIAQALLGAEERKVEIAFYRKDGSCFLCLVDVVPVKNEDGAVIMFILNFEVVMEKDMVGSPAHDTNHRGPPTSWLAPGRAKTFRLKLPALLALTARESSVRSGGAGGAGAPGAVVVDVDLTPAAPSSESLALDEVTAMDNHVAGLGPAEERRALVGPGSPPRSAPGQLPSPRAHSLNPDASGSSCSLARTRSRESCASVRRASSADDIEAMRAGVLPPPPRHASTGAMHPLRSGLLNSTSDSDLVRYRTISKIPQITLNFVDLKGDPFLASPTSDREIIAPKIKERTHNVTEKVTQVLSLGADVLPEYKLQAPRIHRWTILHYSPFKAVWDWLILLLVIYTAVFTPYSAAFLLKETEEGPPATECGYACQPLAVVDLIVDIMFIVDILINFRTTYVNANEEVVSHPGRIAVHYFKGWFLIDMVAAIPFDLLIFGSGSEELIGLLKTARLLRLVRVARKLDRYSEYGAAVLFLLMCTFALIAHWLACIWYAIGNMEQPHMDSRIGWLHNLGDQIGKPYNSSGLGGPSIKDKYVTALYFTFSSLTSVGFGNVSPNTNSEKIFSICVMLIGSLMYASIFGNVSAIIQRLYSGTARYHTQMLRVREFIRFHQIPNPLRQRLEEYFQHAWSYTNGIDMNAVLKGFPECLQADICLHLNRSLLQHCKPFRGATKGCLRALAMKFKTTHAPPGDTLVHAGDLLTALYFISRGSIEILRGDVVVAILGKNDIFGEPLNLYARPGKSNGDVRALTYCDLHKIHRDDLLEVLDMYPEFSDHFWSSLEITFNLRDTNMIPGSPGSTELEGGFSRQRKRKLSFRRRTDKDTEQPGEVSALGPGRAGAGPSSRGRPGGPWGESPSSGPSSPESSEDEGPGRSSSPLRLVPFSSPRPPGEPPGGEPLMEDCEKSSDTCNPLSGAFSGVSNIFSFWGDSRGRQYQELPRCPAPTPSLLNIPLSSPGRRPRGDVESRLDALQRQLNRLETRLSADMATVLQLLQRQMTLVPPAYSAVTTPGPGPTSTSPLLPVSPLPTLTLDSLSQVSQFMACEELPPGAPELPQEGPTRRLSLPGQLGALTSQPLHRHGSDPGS
T1 sequence (P35372 whole entry): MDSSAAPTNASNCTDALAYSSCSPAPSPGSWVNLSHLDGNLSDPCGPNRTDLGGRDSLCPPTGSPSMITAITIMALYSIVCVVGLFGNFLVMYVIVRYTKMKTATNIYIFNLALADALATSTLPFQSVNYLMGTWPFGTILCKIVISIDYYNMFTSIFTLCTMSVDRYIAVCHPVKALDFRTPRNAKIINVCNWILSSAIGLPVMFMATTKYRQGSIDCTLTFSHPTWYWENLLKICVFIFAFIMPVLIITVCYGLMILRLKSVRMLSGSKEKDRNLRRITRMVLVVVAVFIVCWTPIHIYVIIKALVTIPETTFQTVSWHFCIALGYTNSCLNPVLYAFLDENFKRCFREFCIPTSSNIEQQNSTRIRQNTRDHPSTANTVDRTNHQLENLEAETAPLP
T2 sequence (P41145 whole entry): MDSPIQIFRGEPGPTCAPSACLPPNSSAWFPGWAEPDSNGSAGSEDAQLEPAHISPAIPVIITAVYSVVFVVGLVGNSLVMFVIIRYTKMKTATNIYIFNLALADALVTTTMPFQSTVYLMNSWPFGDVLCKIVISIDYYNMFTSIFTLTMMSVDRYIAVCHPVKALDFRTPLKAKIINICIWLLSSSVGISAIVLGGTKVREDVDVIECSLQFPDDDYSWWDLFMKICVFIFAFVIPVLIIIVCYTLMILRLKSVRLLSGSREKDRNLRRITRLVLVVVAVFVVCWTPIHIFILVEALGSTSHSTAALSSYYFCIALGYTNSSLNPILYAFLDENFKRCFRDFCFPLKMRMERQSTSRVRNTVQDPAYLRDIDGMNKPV

## C=CCN1C[C@H](C)N([C@H](c2ccc(C(=O)N(CC)CC)cc2)c2cccc(OC)c2)C[C@H]1C
Mu-type opioid receptor [1]
  inhibition: 25%
[2]
  inhibition: 28%

## CCN(CC)C(=O)c1ccc(C2=CC3(CCN(C(C)=O)CC3)Oc3ccccc32)cc1
Mu-type opioid receptor [1]
  inhibition: 14%
[2]
  inhibition: 2%
[3]
  IC50: 47400 nM
[4]
  Ki: 1300 nM

## C1=C(c2ccccc2)c2ccccc2OC12CCNCC2
Mu-type opioid receptor [1]
  inhibition: 42%
[5]
  Ki: 3400 nM

## CCN(CC)C(=O)c1ccc(C2=CC3(CCN(C)CC3)Oc3ccccc32)cc1
Mu-type opioid receptor [1]
  inhibition: 12%
[2]
  inhibition: 24%
[6]
  EC50: 89 nM
[4]
  Ki: 3.5 nM

## CCN(CC)C(=O)c1ccc(C2=CC3(CCNCC3)Oc3cc(O)ccc32)cc1
Mu-type opioid receptor [1]
  inhibition: 35%
[2]
  inhibition: 39%

## CCN(CC)C(=O)c1ccc(C2=CC3(CCNCC3)Oc3cccc(O)c32)cc1 [ADL-5859]
Rattus norvegicus [7]
  Activity: Active
Mu-type opioid receptor [1]
  inhibition: 32%
[2]
  inhibition: 37%
Rattus norvegicus [8]
  Activity: 100%
Rattus norvegicus [9]
  ED50: 1.4 mg/kg
Rattus norvegicus [10]
  Activity: Active
Rattus norvegicus [11]
  Activity: Active
[12]
  clearance: 30 mL/min/kg
[13]
  Vd: 10.7 L/kg
[14]
  half-life: 5.3 h
[15]
  Cmax: 117 nM
[16]
  bioavailability: 33.4%
[17]
  clearance: 6.67 mL/min/kg
[18]
  Vd: 2.5 L/kg
[19]
  half-life: 4.7 h
[20]
  Cmax: 1730 nM
[21]
  bioavailability: 66.5%
[22]
  fraction unbound at 2 µM: 0.159
[23]
  fraction unbound at 2 µM: 0.152
Liver microsomes [24]
  Stability: 64.9%
[25]
  fraction unbound at 2 µM: 0.419
Liver microsomes [26]
  Stability: 69.2%
[27]
  remaining at 0.5 h: 98.7%
Rattus norvegicus [28]
  Activity: Non-toxic
Rattus norvegicus [29]
  Activity: Non-toxic
Rattus norvegicus [30]
  Activity: Non-toxic
Rattus norvegicus [31]
  Activity: Non-toxic
Mus musculus [32]
  Activity: Non-toxic
Mus musculus [33]
  Activity: Non-toxic
Mus musculus [34]
  Activity: Non-toxic
Rattus norvegicus [35]
  Activity: inactive
Rattus norvegicus [36]
  Activity: inactive
Rattus norvegicus [37]
  Activity: Active
[6]
  EC50: 20 nM
[3]
  IC50: 78000 nM
[4]
  Ki: 0.84 nM

## CCN(CC)C(=O)c1ccccc1C1=CC2(CCNCC2)Oc2ccccc21
Mu-type opioid receptor [1]
  inhibition: 12%
[2]
  inhibition: 45%

## CCN(CC)C(=O)c1ccc(C2=CC3(CCNCC3)Oc3ccc(O)cc32)cc1
Mu-type opioid receptor [1]
  inhibition: 36%
Rattus norvegicus [8]
  Activity: 35%
[5]
  Ki: 830 nM
[6]
  EC50: 1.4 nM
[3]
  IC50: 19800 nM
[4]
  Ki: 0.43 nM

## Oc1ccc(C2=CC3(CCNCC3)Oc3ccccc32)cc1
Mu-type opioid receptor [1]
  inhibition: 54%
[2]
  inhibition: 58%
[6]
  EC50: 220 nM
[3]
  IC50: 643 nM
[4]
  Ki: 59 nM

## c1ccc(C2CC3(CCNCC3)Oc3ccccc32)cc1 (stereo not given)
[4]
  Ki: 160 nM

## CCN(CC)C(=O)c1ccc(C2=CC3(CCNCC3)Oc3c(O)cccc32)cc1
Mu-type opioid receptor [1]
  inhibition: 4%
[2]
  inhibition: 28%
[4]
  Ki: 360 nM

## FC(F)(F)c1ccc(C2=CC3(CCNCC3)Oc3ccccc32)cc1
Mu-type opioid receptor [1]
  inhibition: 42%
[5]
  Ki: 2000 nM
[4]
  Ki: 150 nM

## O=C(O)c1ccc(C2=CC3(CCNCC3)Oc3ccccc32)cc1
Mu-type opioid receptor [1]
  inhibition: 13%
[2]
  inhibition: 14%
[6]
  EC50: 220 nM
[4]
  Ki: 11 nM

## CCN1CCC2(C=C(c3ccc(C(=O)N(CC)CC)cc3)c3ccccc3O2)CC1
Mu-type opioid receptor [1]
  inhibition: 13%
[2]
  inhibition: 13%

## COC(=O)c1ccc(C2=CC3(CCNCC3)Oc3ccccc32)cc1
Mu-type opioid receptor [1]
  inhibition: 54%
[5]
  Ki: 520 nM

## Cc1ccc(C2=CC3(CCNCC3)Oc3ccccc32)cc1
Mu-type opioid receptor [1]
  inhibition: 49%
[2]
  inhibition: 57%

## N#Cc1ccc(C2=CC3(CCNCC3)Oc3ccccc32)cc1
Mu-type opioid receptor [1]
  inhibition: 60%
[2]
  inhibition: 63%
[6]
  EC50: 200 nM
[4]
  Ki: 18 nM

## O=S(=O)(Cc1ccc(Cl)cc1)N1CCC2(CC1)CC(c1ccccc1)c1ccccc1O2 (stereo not given)
[4]
  Ki: 500 nM

## C=CCN1C[C@H](C)N([C@H](c2ccc(C(=O)N(CC)CC)cc2)c2cccc(O)c2)C[C@H]1C
[2]
  Ki: 130 nM
[5]
  Ki: 3400 nM
Mu-type opioid receptor [38]
  Ki: 260 nM
[6]
  EC50: 0.4 nM
[4]
  Ki: 0.32 nM

## COc1ccc(C2=CC3(CCNCC3)Oc3ccccc32)cc1
Mu-type opioid receptor [1]
  inhibition: 42%
[2]
  inhibition: 42%

## CCN(CC)C(=O)c1cccc(C2=CC3(CCNCC3)Oc3ccccc32)c1
Mu-type opioid receptor [1]
  inhibition: 12%
[2]
  inhibition: 10%
[4]
  Ki: 330 nM

— ChEMBL document CHEMBL1140111, “Potent, orally bioavailable delta opioid receptor agonists for the treatment of pain: discovery of N,N-diethyl-4-(5-hydroxyspiro[chromene-2,4'-piperidine]-4-yl)benzamide (ADL5859)” (J Med Chem, 2008)
